Key:
Format in all cases: tissue-based
[1] = biological target: Transporter (Rattus norvegicus, UniProt Q63380); assay: Displacement of [3H]nisoxetine from NAT in Sprague-Dawley rat brain after 4 hrs by liquid scintillation analysis
[2] = biological target: Sodium-dependent serotonin transporter (Rattus norvegicus, UniProt P31652); assay: Displacement of [3H]citalopram from SERT in Sprague-Dawley rat brain after 2 hrs by liquid scintillation analysis
[3] = biological target: Sodium-dependent dopamine transporter (Rattus norvegicus, UniProt P23977); assay: Displacement of [3H]WIN-35428 from DAT in Sprague-Dawley rat brain after 2 hrs by liquid scintillation analysis
Sequence of Sodium-dependent dopamine transporter (P23977 whole entry): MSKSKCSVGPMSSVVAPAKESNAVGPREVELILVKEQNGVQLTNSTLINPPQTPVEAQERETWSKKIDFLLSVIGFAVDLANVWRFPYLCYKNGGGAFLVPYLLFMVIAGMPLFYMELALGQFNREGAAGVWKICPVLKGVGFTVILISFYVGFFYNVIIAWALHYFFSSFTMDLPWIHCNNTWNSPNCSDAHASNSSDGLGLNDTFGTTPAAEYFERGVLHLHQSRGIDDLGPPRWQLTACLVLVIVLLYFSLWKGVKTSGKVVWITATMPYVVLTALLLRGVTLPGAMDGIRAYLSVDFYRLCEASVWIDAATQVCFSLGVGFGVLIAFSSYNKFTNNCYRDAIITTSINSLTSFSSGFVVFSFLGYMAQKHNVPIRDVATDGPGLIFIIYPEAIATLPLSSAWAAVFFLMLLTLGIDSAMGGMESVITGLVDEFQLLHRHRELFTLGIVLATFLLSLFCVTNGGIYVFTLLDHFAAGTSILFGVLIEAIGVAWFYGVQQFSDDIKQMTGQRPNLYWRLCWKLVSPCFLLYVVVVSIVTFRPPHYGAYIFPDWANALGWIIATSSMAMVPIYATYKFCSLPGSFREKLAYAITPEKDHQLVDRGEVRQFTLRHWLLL

Sequence of Sodium-dependent serotonin transporter (P31652 whole entry): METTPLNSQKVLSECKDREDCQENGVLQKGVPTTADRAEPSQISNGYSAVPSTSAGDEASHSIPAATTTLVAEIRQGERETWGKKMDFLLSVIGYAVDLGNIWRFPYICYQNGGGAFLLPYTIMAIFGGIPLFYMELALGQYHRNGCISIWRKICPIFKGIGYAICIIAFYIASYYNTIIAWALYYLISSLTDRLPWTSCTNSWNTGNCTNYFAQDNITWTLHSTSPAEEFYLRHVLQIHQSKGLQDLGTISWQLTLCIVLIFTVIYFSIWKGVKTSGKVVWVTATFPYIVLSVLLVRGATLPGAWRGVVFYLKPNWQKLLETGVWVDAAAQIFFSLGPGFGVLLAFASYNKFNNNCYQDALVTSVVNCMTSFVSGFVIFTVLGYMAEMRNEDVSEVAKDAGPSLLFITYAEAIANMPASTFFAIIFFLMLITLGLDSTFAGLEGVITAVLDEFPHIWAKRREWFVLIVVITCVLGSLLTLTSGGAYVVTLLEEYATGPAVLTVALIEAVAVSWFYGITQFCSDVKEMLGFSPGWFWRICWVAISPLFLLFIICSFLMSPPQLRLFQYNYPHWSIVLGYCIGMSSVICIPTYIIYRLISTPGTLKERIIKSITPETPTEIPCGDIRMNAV
Sequence of Transporter (Q63380 whole entry): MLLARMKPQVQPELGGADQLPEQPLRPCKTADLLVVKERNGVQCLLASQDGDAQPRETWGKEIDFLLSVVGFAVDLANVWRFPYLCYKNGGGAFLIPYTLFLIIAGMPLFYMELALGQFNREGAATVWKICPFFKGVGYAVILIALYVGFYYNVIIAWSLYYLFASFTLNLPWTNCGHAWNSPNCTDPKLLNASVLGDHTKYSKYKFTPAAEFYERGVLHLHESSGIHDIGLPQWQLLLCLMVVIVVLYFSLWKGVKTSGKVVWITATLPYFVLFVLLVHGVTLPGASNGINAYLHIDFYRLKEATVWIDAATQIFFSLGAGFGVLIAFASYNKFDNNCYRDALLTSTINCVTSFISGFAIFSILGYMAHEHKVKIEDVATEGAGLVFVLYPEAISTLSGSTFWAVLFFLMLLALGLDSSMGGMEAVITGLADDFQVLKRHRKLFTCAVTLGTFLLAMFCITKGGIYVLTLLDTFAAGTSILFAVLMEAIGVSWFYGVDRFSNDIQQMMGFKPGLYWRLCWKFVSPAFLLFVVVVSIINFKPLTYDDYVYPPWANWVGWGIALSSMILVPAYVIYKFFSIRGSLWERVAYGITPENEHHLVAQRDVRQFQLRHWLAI

SMILES: Ic1ccccc1O[C@@H](c1ccccc1)[C@@H]1CNCCO1
- Ki [1]: 0.00084 µM

SMILES: CCOc1ccccc1O[C@@H](c1ccc(I)cc1)[C@H]1CNCCO1
- Ki [1]: 0.0582 µM

SMILES: CCOc1ccccc1O[C@@H](c1ccc(I)cc1)[C@@H]1CNCCO1
- Ki [1]: 0.0538 µM

SMILES: Ic1ccccc1O[C@@H](c1ccccc1)[C@H]1CNCCO1
- Ki [1]: 0.0084 µM
- Ki [2]: 0.0515 µM
- Ki [3]: 0.526 µM

SMILES: Ic1cccc(O[C@@H](c2ccccc2)[C@H]2CNCCO2)c1
- Ki [1]: 1.7 µM
- Ki [2]: 0.154 µM
- Ki [3]: 1.9 µM

SMILES: Ic1ccc(O[C@@H](c2ccccc2)[C@H]2CNCCO2)cc1
- Ki [1]: 1.1 µM
- Ki [2]: 0.0345 µM
- Ki [3]: 2.1 µM

— ChEMBL document CHEMBL1155325, “Design and synthesis of (2R,3S)-iodoreboxetine analogues for SPECT imaging of the noradrenaline transporter” (Bioorg Med Chem Lett, 2009)
